According to patent US9068343B2, “Construction element” (Termite Solutions Victoria Pty Ltd., priority 2010, dated 2015):

How the values were obtained:
[1] = Evaporative loss of active during extrusion-based masterbatch preparation; assay type: physicochemical; conditions: 10% bifenthrin melt mixed into EVA-LLDPE-silicate carrier resin, masterbatch pellets
Procedure: A masterbatch polymeric carrier resin was prepared by melt mixing bifenthrin (10% wt. percentage), low melting EVA polymer and either a high melt index linear low density polyethylene (LLDPE) or low density polyethylene (LDE).
In this way, 10% of the active bifenthrin was incorporated into an EVA-LLDPE-silicate carrier resin and masterbatch pellets produced.

[2] = Thermogravimetric study of the stability of bifenthrin (thermal balance); assay type: physicochemical; conditions: thermogravimetric study using a thermal balance; threshold temperature of decomposition
Procedure: In order to determine whether extrusion-based masterbatch preparation was possible without excessive thermal decomposition or volatilization of bifenthrin, a thermogravimetric study was performed using a thermal balance.

In the case of `Cc1c(COC(=O)[C@@H]2[C@H](/C=C(\Cl)C(F)(F)F)C2(C)C)cccc1-c1ccccc1` (racemic) [bifenthrin], the “evaporative losses of the active” value [1] is reported as “no measurable evaporative losses” and the “temperature at which degradation of the active occurs” value [2] is reported as “about 180 °C”.
